The NIST ThermoML archive (doi:10.1016/j.jct.2011.12.008)
± gives the expanded uncertainty stated by the source.

How the values were obtained:
[1] = 101.33 kPa, Liquid; for viscosity: Capillary tube (Ostwald / Ubbelohde) method; for mass density: Vibrating tube method
[2] = xn = mol fraction of the nth substance listed; conditions: 101 kPa, Liquid; for viscosity: Capillary tube (Ostwald / Ubbelohde) method; for mass density: Vibrating tube method

Compound `CCCCCCn1cc[n+](C)c1.F[B-](F)(F)F` [1-hexyl-3-methylimidazolium tetrafluoroborate] has a viscosity ([1]; 293.15 K) of 234.68 ± 11 mPa·s, a mass density ([1]; 293.15 K) of 1149.05 ± 1.2 kg/m3 and a viscosity ([1]; 298.15 K) of 178.92 ± 8.4 mPa·s. The mass density ([1]; 298.15 K) was 1145.61 ± 1.1 kg/m3, the viscosity ([1]; 303.15 K) was 136.15 ± 6.2 mPa·s and the mass density ([1]; 303.15 K) was 1142.3 ± 1.1 kg/m3. It also gave a viscosity ([1]; 308.15 K) of 106.65 ± 4.7 mPa·s, a mass density ([1]; 308.15 K) of 1138.95 ± 1.1 kg/m3 and a viscosity ([1]; 313.15 K) of 83.13 ± 3.6 mPa·s. The mass density ([1]; 313.15 K) was 1135.59 ± 1.1 kg/m3, the viscosity ([1]; 318.15 K) was 69.13 ± 2.9 mPa·s and the mass density ([1]; 318.15 K) was 1132.22 ± 1.1 kg/m3. The viscosity ([1]; 323.15 K) was 56.74 ± 2.4 mPa·s, the mass density ([1]; 323.15 K) was 1128.88 ± 1.1 kg/m3 and the viscosity ([1]; 328.15 K) was 48.36 ± 2 mPa·s. It also gave a mass density ([1]; 328.15 K) of 1125.5 ± 1.1 kg/m3, a viscosity ([1]; 333.15 K) of 43.01 ± 1.8 mPa·s and a mass density ([1]; 333.15 K) of 1122.14 ± 1.1 kg/m3. The viscosity ([1]; 338.15 K) was 37.15 ± 1.6 mPa·s and the mass density ([1]; 338.15 K) was 1118.8 ± 1.1 kg/m3.
In the case of `CCCCCCn1cc[n+](C)c1.F[B-](F)(F)F` [1-hexyl-3-methylimidazolium tetrafluoroborate] + NCCCO, the viscosity ([2]; 293.15 K, x1 = 1) is reported as 234.68 ± 11 mPa·s, the mass density ([2]; 293.15 K, x1 = 1) is reported as 1149.05 ± 1.1 kg/m3 and the viscosity ([2]; 298.15 K, x1 = 1) is reported as 178.92 ± 8.4 mPa·s. The mass density ([2]; 298.15 K, x1 = 1) was 1145.61 ± 1.1 kg/m3, the viscosity ([2]; 303.15 K, x1 = 1) was 136.15 ± 6.2 mPa·s and the mass density ([2]; 303.15 K, x1 = 1) was 1142.3 ± 1.1 kg/m3. For the same compound, the viscosity ([2]; 308.15 K, x1 = 1) was 106.65 ± 4.7 mPa·s, the mass density ([2]; 308.15 K, x1 = 1) was 1138.95 ± 1.1 kg/m3 and the viscosity ([2]; 313.15 K, x1 = 1) was 83.13 ± 3.6 mPa·s. It also gave a mass density ([2]; 313.15 K, x1 = 1) of 1135.59 ± 1.1 kg/m3, a viscosity ([2]; 318.15 K, x1 = 1) of 69.13 ± 2.9 mPa·s and a mass density ([2]; 318.15 K, x1 = 1) of 1132.22 ± 1.1 kg/m3. The viscosity ([2]; 323.15 K, x1 = 1) was 56.74 ± 2.4 mPa·s, the mass density ([2]; 323.15 K, x1 = 1) was 1128.88 ± 1.1 kg/m3 and the viscosity ([2]; 328.15 K, x1 = 1) was 48.36 ± 2 mPa·s. It also gave a mass density ([2]; 328.15 K, x1 = 1) of 1125.5 ± 1.1 kg/m3, a viscosity ([2]; 333.15 K, x1 = 1) of 43.01 ± 1.8 mPa·s and a mass density ([2]; 333.15 K, x1 = 1) of 1122.14 ± 1.1 kg/m3. For the same compound, the viscosity ([2]; 338.15 K, x1 = 1) was 37.15 ± 1.6 mPa·s and the mass density ([2]; 338.15 K, x1 = 1) was 1118.8 ± 1.1 kg/m3.
`CC(C)CO` [2-methyl-1-propanol] + CCCCCCn1cc[n+](C)c1.F[B-](F)(F)F showed a viscosity ([2]; 293.15 K, x2 = 0) of 4.085 ± 0.17 mPa·s, a mass density ([2]; 293.15 K, x2 = 0) of 801.75 ± 0.24 kg/m3 and a viscosity ([2]; 298.15 K, x2 = 0) of 3.45 ± 0.14 mPa·s. The mass density ([2]; 298.15 K, x2 = 0) was 797.89 ± 0.24 kg/m3, the viscosity ([2]; 303.15 K, x2 = 0) was 2.877 ± 0.12 mPa·s and the mass density ([2]; 303.15 K, x2 = 0) was 793.99 ± 0.24 kg/m3. The viscosity ([2]; 308.15 K, x2 = 0) was 2.385 ± 0.098 mPa·s, the mass density ([2]; 308.15 K, x2 = 0) was 790.04 ± 0.24 kg/m3 and the viscosity ([2]; 313.15 K, x2 = 0) was 2.091 ± 0.086 mPa·s. For the same compound, the mass density ([2]; 313.15 K, x2 = 0) was 786.04 ± 0.24 kg/m3, the viscosity ([2]; 318.15 K, x2 = 0) was 1.85 ± 0.076 mPa·s and the mass density ([2]; 318.15 K, x2 = 0) was 781.98 ± 0.24 kg/m3. It also gave a viscosity ([2]; 323.15 K, x2 = 0) of 1.576 ± 0.065 mPa·s, a mass density ([2]; 323.15 K, x2 = 0) of 777.85 ± 0.24 kg/m3 and a viscosity ([2]; 328.15 K, x2 = 0) of 1.297 ± 0.053 mPa·s. It also gave a mass density ([2]; 328.15 K, x2 = 0) of 773.65 ± 0.24 kg/m3, a viscosity ([2]; 333.15 K, x2 = 0) of 1.124 ± 0.046 mPa·s and a mass density ([2]; 333.15 K, x2 = 0) of 769.36 ± 0.24 kg/m3. The viscosity ([2]; 338.15 K, x2 = 0) was 0.9876 ± 0.041 mPa·s and the mass density ([2]; 338.15 K, x2 = 0) was 764.99 ± 0.24 kg/m3.
`CC(C)CO` [2-methyl-1-propanol] gave a viscosity ([1]; 293.15 K) of 4.085 ± 0.17 mPa·s, a mass density ([1]; 293.15 K) of 801.75 ± 0.24 kg/m3 and a viscosity ([1]; 298.15 K) of 3.45 ± 0.14 mPa·s. It also gave a mass density ([1]; 298.15 K) of 797.89 ± 0.24 kg/m3, a viscosity ([1]; 303.15 K) of 2.877 ± 0.12 mPa·s and a mass density ([1]; 303.15 K) of 793.99 ± 0.24 kg/m3. It also gave a viscosity ([1]; 308.15 K) of 2.385 ± 0.098 mPa·s, a mass density ([1]; 308.15 K) of 790.04 ± 0.24 kg/m3 and a viscosity ([1]; 313.15 K) of 2.091 ± 0.086 mPa·s. The mass density ([1]; 313.15 K) was 786.04 ± 0.24 kg/m3, the viscosity ([1]; 318.15 K) was 1.85 ± 0.076 mPa·s and the mass density ([1]; 318.15 K) was 781.98 ± 0.24 kg/m3. The viscosity ([1]; 323.15 K) was 1.576 ± 0.065 mPa·s, the mass density ([1]; 323.15 K) was 777.85 ± 0.24 kg/m3 and the viscosity ([1]; 328.15 K) was 1.297 ± 0.053 mPa·s. The mass density ([1]; 328.15 K) was 773.65 ± 0.24 kg/m3, the viscosity ([1]; 333.15 K) was 1.124 ± 0.046 mPa·s and the mass density ([1]; 333.15 K) was 769.36 ± 0.24 kg/m3. For the same compound, the viscosity ([1]; 338.15 K) was 0.9876 ± 0.041 mPa·s and the mass density ([1]; 338.15 K) was 764.99 ± 0.24 kg/m3.
For `NCCCO` [3-amino-1-propanol], the viscosity ([1]; 293.15 K) was 39.29 ± 1.6 mPa·s, the mass density ([1]; 293.15 K) was 987.55 ± 0.23 kg/m3 and the viscosity ([1]; 298.15 K) was 30.43 ± 1.3 mPa·s. The mass density ([1]; 298.15 K) was 983.55 ± 0.23 kg/m3, the viscosity ([1]; 303.15 K) was 23.87 ± 0.99 mPa·s and the mass density ([1]; 303.15 K) was 979.53 ± 0.23 kg/m3. It also gave a viscosity ([1]; 308.15 K) of 19.07 ± 0.79 mPa·s, a mass density ([1]; 308.15 K) of 975.51 ± 0.23 kg/m3 and a viscosity ([1]; 313.15 K) of 15.27 ± 0.63 mPa·s. For the same compound, the mass density ([1]; 313.15 K) was 971.47 ± 0.23 kg/m3, the viscosity ([1]; 318.15 K) was 12.35 ± 0.51 mPa·s and the mass density ([1]; 318.15 K) was 967.43 ± 0.23 kg/m3. For the same compound, the viscosity ([1]; 323.15 K) was 10.22 ± 0.42 mPa·s, the mass density ([1]; 323.15 K) was 963.37 ± 0.23 kg/m3 and the viscosity ([1]; 328.15 K) was 8.535 ± 0.35 mPa·s. For the same compound, the mass density ([1]; 328.15 K) was 959.3 ± 0.23 kg/m3, the viscosity ([1]; 333.15 K) was 7.123 ± 0.29 mPa·s and the mass density ([1]; 333.15 K) was 955.22 ± 0.23 kg/m3. For the same compound, the viscosity ([1]; 338.15 K) was 6.045 ± 0.25 mPa·s and the mass density ([1]; 338.15 K) was 951.14 ± 0.23 kg/m3.
